The first assay concerns the target T1, human EP2 receptors (Homo sapiens, UniProt P43116).
T1 construct: expressed in transfected cells
In words: cell-based cAMP TR-FRET assay, rightward shift of PGE2 concentration response curve (Schild KB), EP2. The note with it: Table 6; read-out: EP2 KB. The procedure:
KB value indicates the antagonist concentration required for a twofold rightward shift in the PGE2 dose-response curve. Thus, a lower KB value indicates a higher inhibitory potency.
(§1) The synthesis was carried out starting from commercially available 2-methyl indole or 2-trifluoromethyl indoles (11a-c), which on treatment with bromoacetonitrile provided intermediates (12a-c), which then were subjected to lithium aluminum hydride to reduce cyanide to amines. […] Synthesized derivatives were tested by using a cAMP-derived TR-FRET assay, at single concentration (1 μM) to observe a rightward shift of PGE2 (an EP2 agonist) concentration response curve in a C6G cell line that overexpresses human EP2 receptors.
A lower KB value indicates a higher inhibitory potency.
(§2) Intracellular cAMP was measured with a cell-based homogeneous time-resolved fluorescence resonance energy transfer (TR-FRET) method (Cisbio Bioassays). […] Endogenous cAMP produced by cells competes with labeled cAMP for binding to the cAMP antibody and thus reduces the FRET signal. Cells stably expressing human DP1, EP2, EP4, or IP receptors were seeded into 384-well plates in 30 μl complete medium (4,000 cells/well) and grown overnight. The medium was carefully withdrawn and 10 μl Hanks' Buffered Salt Solution (HBSS) (Hyclone) containing 20 μM rolipram was added into the wells to block phosphodiesterases. The cells were incubated at room temperature for 0.5-1 h and then treated with vehicle or test compound for 10 min before addition of increasing concentrations of appropriate agonist: BW245C for DP1, PGE2 for EP2 and EP4, or iloprost for IP. The cells were incubated at room temperature for 40 min, then lysed in 10 μl lysis buffer containing the FRET acceptor cAMP-d2 and 1 min later another 10 μl lysis buffer with anti-cAMP-Cryptate was added. After 60-90 min incubation at room temperature, the FRET signal was measured by an Envision 2103 Multilabel Plate Reader (PerkinElmer Life Sciences) with a laser excitation at 337 nm and dual emissions at 665 nm and 590 nm for d2 and Cryptate (50 s delay), respectively. The FRET signal was expressed as: F665/F590×10^4.
T1 sequence (P43116 whole entry): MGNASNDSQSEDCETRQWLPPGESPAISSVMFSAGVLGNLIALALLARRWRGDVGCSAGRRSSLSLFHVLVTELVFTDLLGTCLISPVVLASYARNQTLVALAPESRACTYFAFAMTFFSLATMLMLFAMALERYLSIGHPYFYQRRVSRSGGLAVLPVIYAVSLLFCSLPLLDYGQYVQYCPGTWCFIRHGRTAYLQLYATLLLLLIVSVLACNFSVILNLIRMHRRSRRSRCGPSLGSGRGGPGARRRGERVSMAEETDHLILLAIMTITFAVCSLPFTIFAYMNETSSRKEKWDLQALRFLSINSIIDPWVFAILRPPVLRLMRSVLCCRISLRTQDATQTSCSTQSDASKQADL
As for `O=C(NCCn1c(C(F)(F)F)cc2ccccc21)c1ccc(N2CCC(C(=O)O)CC2)cc1` [TG8-46], the Kb amounted to 413 nM.
Still for that read-out and setting: to `Cc1cc2ccccc2n1C1CCCN(C(=O)c2ccc(N3CCOCC3)cc2)C1` (stereo not drawn) [TG7-292] belongs 1790 nM.
As for `Cc1cc2ccccc2n1CCNC(=O)c1ccc(-c2cn(Cc3ccccc3)nn2)cc1` [TG8-55], the Kb was 305 nM.
For `Cc1cc2cc(Br)ccc2n1CCNC(=O)c1ccc(N2CCOCC2)cc1` [TG7-300], the Kb is 247 nM.
On to `Cc1cc2ccccc2n1CCNC(=O)c1ccc(-c2cn(COCc3ccccc3)nn2)cc1` [TG8-54], for which the Kb was 164 nM.
Consider `Cc1cc2ccccc2n1CCNC(=O)c1cc(-c2ccc(F)cc2)n[nH]1` [TG7-245], for which the Kb is 22.7 nM.
Turning to `Cc1cc2ccccc2n1CCNC(=O)c1ccc(OCCO)c(OCCO)c1` [TG8-3], the Kb worked out at 271 nM.
On the same count and under the same terms, the same measure for `C#Cc1ccc(C(=O)NCCn2c(C)cc3ccccc32)cc1` [TG8-52]: 77.5 nM; for `O=C(NCCn1c(C(F)(F)F)cc2ccccc21)c1ccc(-c2nnn[nH]2)cc1` [TG8-47]: 1110 nM.
On the same count and under the same terms, to `Cc1cc2ccccc2n1CCNC(=O)c1cc(-c2ccccc2)no1` [TG7-242] belongs 29.5 nM.
Take `CCOC(=O)C1CCN(c2ccc(C(=O)NCCn3c(C(F)(F)F)cc4ccccc43)cc2)CC1` [TG8-42]: the Kb was found to be 2740 nM.
As to `Cc1cc2ccccc2n1CCNC(=O)c1ccc(-n2cc(CO)nn2)cc1` [TG8-60], the Kb is 28.2 nM.

The next assay concerns the target T2, human DP1 receptors (Homo sapiens, UniProt Q13258).
T2 construct: expressed in transfected cells
T2 sequence (Q13258 1-359): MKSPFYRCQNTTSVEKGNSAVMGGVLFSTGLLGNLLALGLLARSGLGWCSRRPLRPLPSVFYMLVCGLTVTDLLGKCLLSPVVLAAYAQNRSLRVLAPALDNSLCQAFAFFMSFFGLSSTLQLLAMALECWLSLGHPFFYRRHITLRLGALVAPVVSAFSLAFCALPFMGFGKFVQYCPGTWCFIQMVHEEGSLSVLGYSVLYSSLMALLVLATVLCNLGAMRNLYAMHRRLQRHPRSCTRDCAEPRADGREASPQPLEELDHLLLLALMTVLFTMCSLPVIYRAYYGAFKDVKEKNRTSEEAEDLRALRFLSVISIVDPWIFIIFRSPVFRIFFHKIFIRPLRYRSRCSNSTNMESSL
In words: cell-based cAMP TR-FRET assay, DP1 (agonist BW245C). The note with it: Table 6. The protocol: as §1
as §2, with “After 60-90 min incubation at room temperature, the FRET signal was measured by an Envision 2103 Multilabel Plate Reader (PerkinElmer Life Sciences) with a laser excitation at 337 nm and dual emissions at 665 nm and 590 nm for d2 and Cryptate (50 s delay), respectively.” left out
In general terms: TR-FRET usually uses a lanthanide donor and a delayed reading to cut background.
In the case of `Cc1cc2ccccc2n1C1CCCN(C(=O)c2ccc(N3CCOCC3)cc2)C1` (stereo not drawn) [TG7-292], the “DP1 KB” value was “Inactive”.
The same measure, in the same setting: to `Cc1cc2ccccc2n1CCNC(=O)c1cc(-c2ccccc2)no1` [TG7-242] belongs “Inactive”.

Still in this assay, the particulars now being: Table 6; read-out: DP1 KB.
Turning to `O=C(NCCn1c(C(F)(F)F)cc2ccccc21)c1ccc(N2CCC(C(=O)O)CC2)cc1` [TG8-46], the Kb is 1060 nM.
As for `Cc1cc2ccccc2n1CCNC(=O)c1ccc(-c2cn(Cc3ccccc3)nn2)cc1` [TG8-55], the Kb was 6960 nM.
Same read-out and setting: the same measure for `Cc1cc2cc(Br)ccc2n1CCNC(=O)c1ccc(N2CCOCC2)cc1` [TG7-300]: 18900 nM.
Take `Cc1cc2ccccc2n1CCNC(=O)c1ccc(-c2cn(COCc3ccccc3)nn2)cc1` [TG8-54]: the Kb worked out at 3390 nM.
Regarding `Cc1cc2ccccc2n1CCNC(=O)c1cc(-c2ccc(F)cc2)n[nH]1` [TG7-245], the Kb was 140000 nM.
As for `Cc1cc2ccccc2n1CCNC(=O)c1ccc(OCCO)c(OCCO)c1` [TG8-3], the Kb was 62900 nM.
As to `C#Cc1ccc(C(=O)NCCn2c(C)cc3ccccc32)cc1` [TG8-52], the Kb was 609 nM.
For `O=C(NCCn1c(C(F)(F)F)cc2ccccc21)c1ccc(-c2nnn[nH]2)cc1` [TG8-47], the Kb was 795 nM.
`CCOC(=O)C1CCN(c2ccc(C(=O)NCCn3c(C(F)(F)F)cc4ccccc43)cc2)CC1` [TG8-42]: the Kb came to 3240 nM.
As to `Cc1cc2ccccc2n1CCNC(=O)c1ccc(-n2cc(CO)nn2)cc1` [TG8-60], the Kb worked out at 2420 nM.

Source of the values: US11077120B2, “Prostaglandin receptor EP2 antagonists, derivatives, compositions, and uses related thereto” (Emory University, priority 2014, dated 2021).
